{"source": "patent CN117800914A", "about": "“一种抗SARS-CoV-2病毒奥密克戎突变种抑制剂” (Second Military Medical University SMMU, priority 2023, dated 2024)", "origin": "cited, not measured here", "test_system": "COVID-19", "conditions": "early use, cited from earlier work", "data": [{"smiles": "CCC(CC)COC(=O)[C@H](C)N[P@](=O)(OC[C@H]1O[C@@](C#N)(c2ccc3c(N)ncnn23)[C@H](O)[C@@H]1O)Oc1ccccc1", "note": "[瑞德西韦]", "values": [{"measurement": "reduction of risk of severe COVID-19", "value": 87, "unit": "%"}]}, {"smiles": "CC(C)C(=O)OC[C@H]1O[C@@H](n2ccc(NO)nc2=O)[C@H](O)[C@@H]1O", "note": "[莫那匹韦]", "values": [{"measurement": "reduction of risk of hospitalization/death (in words)", "setting": "mild to moderate patients at risk of progression", "value": "可降低住院/死亡风险"}]}]}
